# PMC4256409, “Role of Phenylalanine and Valine^10 Residues in the Antimicrobial Activity and Cytotoxicity of Piscidin-1” (PLoS ONE, 2014)
# Where no end group is shown, it is not given here.
# Key:
# [1] = system: human red blood cells (hRBCs); experiment: Hemolysis; type: cell-based
# Procedure: The hemolytic ability of the peptides was tested using hRBCs. FreshhRBCs were washed three times with phosphate-buffered saline (PBS) (35 mM phosphate buffer containing 150 mM NaCl, pH 7.4), centrifuged for 10 min at 1000×g, and resuspended in PBS. The peptide solutions were then added to 50 µL of hRBCs in PBS to yield a final volume of 100 µL and a final erythrocyte concentration of 4% (v/v). The resulting suspension was incubated with agitation for 1 h at 37°C. The samples were centrifuged at 1000×g for 5 min. Hemoglobin release was monitored by measuring the absorbance of the supernatant at 405 nm. Controls for zero hemolysis (blank) and 100% hemolysis consisted of hRBCs suspended in PBS and 0.1% Triton-X 100, respectively. The percentage of hemolysis was calculated using the following equation: [drawing 1]
# NIH3T3 cells = experiment: Cytotoxicity, MTT assay; type: cell-based, mouse; conditions: 1 d
# Procedure: The mouse embryonic fibroblast-derived cell line NIH3T3 was purchased from the American Type Culture Collection (Manassas, VA). Cells were cultured in Dulbecco’s modified Eagle medium (DMEM) supplemented with 10% fetal bovine serum (FBS) and antibiotic solution (100 units/mL penicillin and 100 µg/mL streptomycin) at 37°C in a humidified 5% CO2 atmosphere. Cultures were passaged every 2–3 days by brief trypsin treatment and visualized with an inverted microscope. The cytotoxicity of peptides against mammalian cells was determined using a 3-(4,5-dimethylthiazol-2-yl)-2,5-diphynyltetrazolium bromide (MTT) assay. Cells were seeded on 96-well microplates at a density of 1×10^4 cells/well in 100 µL of DMEM containing 10% FBS and 1% antibiotics, and […]. Plates were incubated for 24 h at 37°C in 5% CO2. Serial 2-fold dilutions of peptide solutions (100 µL) in DMEM were added; wells containing cells without peptides served as controls. After incubating plates for 1 d, 20 µL of MTT solution (5 mg/mL) was added to each well, and the plates were incubated for an additional 4 h at 37°C. Precipitated MTT formazan was dissolved by adding 100 µL of dimethyl sulfoxide. Absorbance at 570 nm was measured using an enzyme-linked immunosorbent assay (ELISA) reader (Molecular Devices; Sunnyvale, CA). Cell survival, expressed as a percentage, was calculated as the ratio of A570 for cells treated with peptide to that of cells without peptide treatment.
sequence,measurement,setting,value
"FFHHIFRGIVHVGKTIHRLVTG [Pis-1, reference compound]",MHC (minimal peptide concentration that produced hemolysis),[1]; pH 7.4,1.6 µM
same,Hemolysis,"[1]; peptide at its MIC, hRBCs",produced hemolysis even at its MIC
same,Survival rate of NIH3T3 cells,NIH3T3 cells; 6.25 µM peptide,64%
same,Survival rate of NIH3T3 cells,NIH3T3 cells; 12.5 µM peptide,49%
same,Survival rate of NIH3T3 cells,NIH3T3 cells; 25 µM peptide,37%
same,Survival rate of NIH3T3 cells,NIH3T3 cells; 50 µM peptide,11%
